Measured values: patent US5639469A, “Transmucosal delivery system” (Minnesota Mining and Manufacturing Company, priority 1994, dated 1997)
Where two headings read alike, the source gives them in different places.

Columns and labels:
[1] = In vivo rat model: plasma anti Xa after buccal dosing of gel; set-up: species or system rat (Wistar preferred); conditions: Gel Formulation 11
Experimental: The in vivo delivery of heparinic anticoagulant from a gel is determined using a rat model.
This method uses rats of 220 to 500 grams in weight. Wistar rats are the preferred strain. The rats are anesthetized with ether and then a 2 cm vertical incision is made first through the skin and then through the underlying muscle. The esophagus is isolated and tied off with a surgical ligature. The incision is closed with a surgical stapler. After surgery the rats are dosed with the gel by syringe administration with half of the total dose in each cheek. The rats are slightly reanesthesized for dosing and blood withdrawal. Blood samples are withdrawn at 0, 1, 2, 3 and 4 hours post dose. Heparinic anticoagulant concentrations in plasma are determined by an enzymatic method measuring anti Xa using a test kit (Stachrom™ Heparin from Diagnostica Stago, 9 rue des Freres Chausson, 92600 Asnieres-sur Seine, France). Results are reported as the number of anti Xa units per mL of plasma.
A formulation was prepared according to the method set forth above in connection with Gel Formulation 1, except that the sodium dodecyl sulfate was eliminated and the penetration enhancers shown in Table 15 below were incorporated at 2, 5 and/or 10 percent by weight based on the total weight of the gel formulation. Low molecular weight heparin (mean molecular weight from 3450 to 4950 daltons with anti Xa of 65 to 144 units/mg, Bioiberica, Barcelona, Spain) was incorporated at concentrations of 10, 25 and 50 mg of heparin per mL of gel. In vivo delivery was determined using the rat model described above. Each rat was dosed with 0.2 mL of gel formulation to provide the dose of heparin shown in Table 15, wherein "n" designates the number of rats studied. The values obtained were used to calculate the promoting effect (P for each formulation. The promoting effect was calculated using the equation given below: [formula] where: Cmax (H) is equal to the maximal anti Xa activity in plasma after heparin administration without enhancer and Cmax (H+E) is equal to the maximal anti Xa activity in plasma after heparin administration with the enhancer. The results are shown in Table 15 below.

[2] = system: Xa; conditions: cited from earlier work
[3] = enhancer 5 wt%, heparin 5 mg/rat

With CCCCCCCCCCCCCCCC(=O)OC(CC(=O)O)C[N+](C)(C)C (racemic) [Palmitoyl DL carnitine chloride] the “promoting effect (P %)” value ([1]; enhancer 10 wt%, heparin 10 mg/rat) was “+142%”.

For C[C@H](CCC(=O)NCCC[N+](C)(C)CCCS(=O)(=O)[O-])[C@H]1CC[C@H]2[C@@H]3[C@H](O)C[C@@H]4C[C@H](O)CC[C@]4(C)[C@H]3C[C@H](O)[C@]12C [CHAPS], the “promoting effect (P %)” value [1, 3] was “+2%”.

For O=C1CCCN1 [Pyrrolidone], the “promoting effect (P %)” value [1, 3] was -31%.

In the case of C[C@H](CCC(=O)O)[C@H]1CC[C@H]2[C@@H]3CC[C@@H]4C[C@H](O)CC[C@]4(C)[C@H]3C[C@H](O)[C@]12C [Sodium deoxycholate], the “promoting effect (P %)” value ([1]; enhancer 2 wt%, heparin 5 mg/rat) is reported as “+117%” and the “promoting effect (P %)” value [1, 3] is reported as “+122%”.

For CCCCCCCCCCCCOS(=O)(=O)[O-].[Na+] [Sodium dodecyl sulfate], the “promoting effect (P %)” value [1, 3] was “+189%”.

In the case of Low molecular weight heparin, the “anti Xa” value ([2]; mean molecular weight 3450 daltons, Bioiberica) is given as 138 units/mg, the “anti Xa” value ([2]; mean molecular weight 5300 daltons, Bioiberica) is given as 144 units/mg and the “anti Xa” value ([2]; molecular weight 3949, Bioiberica) is given as 113 units/mg.
